According to US5597899A, “Tumor necrosis factor muteins” (Hoffmann-La Roche Inc., priority 1993, dated 1997):

Key:
human TNFR-p55 = test: Solid phase radioligand competition binding assay, E. coli lysates, TNFR-p55; conditions: for Dilution of E. coli Lysate for 50% Inhibition of 125I-TNFα Binding (ID50) TNFR-p55: 10-fold serial dilutions 10^-2 to 10^-7, < = inhibition but below 50% at 1:100, << = no measurable inhibition at 1:100; for ID50 TNFR-p55 / ID50 TNFR-p75: ratio = 1 no receptor selectivity, > 1 TNFR-p55 selectivity, < 1 TNFR-p75 selectivity
Description: (§1) After 20 min incubation at room temperature 50 μl of 1M MgCl2, 20 μl of 5 mg/ml DNaseI, 50 μl of 5M NaCl and 50 μl of 10% NP-40 were added and the mixture was further incubated at room temperature for 15 min. 0.5 ml of the lysate clarified by centrifugation at 13'000 rpm for 5 min was subjected to ammonium sulfate precipitation (25%-70% cut). The 70% ammonium sulfat pellet was dissolved in 0.2 ml PBS and analyzed by sodium dodecyl sulfate polyacrylamide gel electrophoresis (SDS-PAGE) to confirm presence and approximate amount of the recombinant proteins.
TNFα was labelled by the Iodogen method (Pierce Chemical Company) to a specific activity of about 10-30 μCi/μg. The volume was 100 μl/well and each lysate dilution was assayed in duplicate or triplicate. After three hours at room temperature the wells were thoroughly washed with PBS and counted in a γ-counter. The results are given in Table 2 for lysates comprising the muteins indicated therein.

human TNFR-p75 = test: Solid phase radioligand competition binding assay, E. coli lysates, TNFR-p75; conditions: 10-fold serial dilutions 10^-2 to 10^-7, < = inhibition but below 50% at 1:100, << = no measurable inhibition at 1:100
Description: as §1, with “10 ml suspensions of E. coli cells transformed and induced as described in Examples I and II were centrifuged at 4'000 rpm for 10 min and resuspended in 0.9 ml of lysis buffer (10 mM Tris-HCl pH 8.0, 5 mM EDTA, 2 mM PMSF, 10 mM benzamidine, 200 units/ml aprotinine and 0.1 mg/ml lysozyme). After” for “After”
96 well microtiter plates were coated with recombinant human […] TNFR-p75-hγ3 and TNFR-p55-hγ3 fusion proteins (extracellular portion of the receptor fused to the Fc part of human IgG3) at a concentration of 0.3 μg/ml and 0.1 μg/ml, respectively, in phosphate buffered saline (PBS, 100 μl/well, overnight at 4° C.) [Loetscher, H. et al. J. Biol. Chem. 266, 18324-18329 (1991); Lesslauer, W. et al. Eur. J. Immunol. 21, 2883-2886 (1991)]. After blocking with blocking buffer (50 mM Tris pH 7.4, 140 mM NaCl, 5 mM EDTA, 0.02% NAN3, 1% defatted milk powder) the microtiter plate was washed with PBS and incubated in blocking buffer containing 0.1% defatted milk powder with 10 ng/ml human wild-type ^125 I-TNFα and various dilutions of E. coli lysates ranging from 10^-2 to 10^-7 (10-fold serial dilutions). TNFα was labelled by the Iodogen method (Pierce Chemical Company) to a specific activity of about 10-30 μCi/μg. The volume was 100 μl/well and each lysate dilution was assayed in duplicate or triplicate. After three hours at room temperature the wells were thoroughly washed with PBS and counted in a γ-counter. The results are given in Table 2 for lysates comprising the muteins indicated therein.

With L75W: human TNFα mutein L75W the “Dilution of E. coli Lysate for 50% Inhibition of 125I-TNFα Binding (ID50) TNFR-p55” value (human TNFR-p55) was 220 fold, the “ID50 TNFR-p55 / ID50 TNFR-p75” value (human TNFR-p55) was 0.7 and the “Dilution of E. coli Lysate for 50% Inhibition of 125I-TNFα Binding (ID50) TNFR-p75” value (human TNFR-p75) was 330 fold.

In the case of N34D: human TNFα mutein N34D, the “Dilution of E. coli Lysate for 50% Inhibition of 125I-TNFα Binding (ID50) TNFR-p55” value (human TNFR-p55) is reported as 250 fold, the “ID50 TNFR-p55 / ID50 TNFR-p75” value (human TNFR-p55) is reported as over 2.5 and the “Dilution of E. coli Lysate for 50% Inhibition of 125I-TNFα Binding (ID50) TNFR-p75” value (human TNFR-p75) is reported as under 100 fold.

N34H: human TNFα mutein N34H was tested, and the “Dilution of E. coli Lysate for 50% Inhibition of 125I-TNFα Binding (ID50) TNFR-p55” value (human TNFR-p55) was 670 fold, the “ID50 TNFR-p55 / ID50 TNFR-p75” value (human TNFR-p55) was over 6.7 and the “Dilution of E. coli Lysate for 50% Inhibition of 125I-TNFα Binding (ID50) TNFR-p75” value (human TNFR-p75) was under 100 fold.

With D143V: human TNFα mutein D143V the “Dilution of E. coli Lysate for 50% Inhibition of 125I-TNFα Binding (ID50) TNFR-p55” value (human TNFR-p55) was under 100 fold, the “ID50 TNFR-p55 / ID50 TNFR-p75” value (human TNFR-p55) was under 1 and the “Dilution of E. coli Lysate for 50% Inhibition of 125I-TNFα Binding (ID50) TNFR-p75” value (human TNFR-p75) was under 100 fold.

S147N: human TNFα mutein S147N was tested, and the “Dilution of E. coli Lysate for 50% Inhibition of 125I-TNFα Binding (ID50) TNFR-p55” value (human TNFR-p55) was 10,000 fold, the “ID50 TNFR-p55 / ID50 TNFR-p75” value (human TNFR-p55) was 1 and the “Dilution of E. coli Lysate for 50% Inhibition of 125I-TNFα Binding (ID50) TNFR-p75” value (human TNFR-p75) was 10,000 fold.

A33T: human TNFα mutein A33T was tested, and the “Dilution of E. coli Lysate for 50% Inhibition of 125I-TNFα Binding (ID50) TNFR-p55” value (human TNFR-p55) was 1,110 fold, the “ID50 TNFR-p55 / ID50 TNFR-p75” value (human TNFR-p55) was 0.9 and the “Dilution of E. coli Lysate for 50% Inhibition of 125I-TNFα Binding (ID50) TNFR-p75” value (human TNFR-p75) was 1,250 fold.

With A145S: human TNFα mutein A145S the “Dilution of E. coli Lysate for 50% Inhibition of 125I-TNFα Binding (ID50) TNFR-p55” value (human TNFR-p55) was 14,290 fold, the “ID50 TNFR-p55 / ID50 TNFR-p75” value (human TNFR-p55) was 0.6 and the “Dilution of E. coli Lysate for 50% Inhibition of 125I-TNFα Binding (ID50) TNFR-p75” value (human TNFR-p75) was 25,000 fold.

In the case of I97K: human TNFα mutein I97K, the “Dilution of E. coli Lysate for 50% Inhibition of 125I-TNFα Binding (ID50) TNFR-p55” value (human TNFR-p55) is reported as 143 fold, the “ID50 TNFR-p55 / ID50 TNFR-p75” value (human TNFR-p55) is reported as over 1.4 and the “Dilution of E. coli Lysate for 50% Inhibition of 125I-TNFα Binding (ID50) TNFR-p75” value (human TNFR-p75) is reported as under 100 fold.

In the case of H73Q: human TNFα mutein H73Q, the “Dilution of E. coli Lysate for 50% Inhibition of 125I-TNFα Binding (ID50) TNFR-p55” value (human TNFR-p55) is reported as 10,000 fold, the “ID50 TNFR-p55 / ID50 TNFR-p75” value (human TNFR-p55) is reported as 1 and the “Dilution of E. coli Lysate for 50% Inhibition of 125I-TNFα Binding (ID50) TNFR-p75” value (human TNFR-p75) is reported as 10,000 fold.

Q21S: human TNFα mutein Q21S was tested, and the “Dilution of E. coli Lysate for 50% Inhibition of 125I-TNFα Binding (ID50) TNFR-p55” value (human TNFR-p55) was 2,500 fold, the “ID50 TNFR-p55 / ID50 TNFR-p75” value (human TNFR-p55) was 1 and the “Dilution of E. coli Lysate for 50% Inhibition of 125I-TNFα Binding (ID50) TNFR-p75” value (human TNFR-p75) was 2,500 fold.

In the case of K65A: human TNFα mutein K65A, the “Dilution of E. coli Lysate for 50% Inhibition of 125I-TNFα Binding (ID50) TNFR-p55” value (human TNFR-p55) is reported as 20,000 fold, the “ID50 TNFR-p55 / ID50 TNFR-p75” value (human TNFR-p55) is reported as 0.6 and the “Dilution of E. coli Lysate for 50% Inhibition of 125I-TNFα Binding (ID50) TNFR-p75” value (human TNFR-p75) is reported as 33,330 fold.

With R32W-S86T: human TNFα mutein R32W-S86T the “Dilution of E. coli Lysate for 50% Inhibition of 125I-TNFα Binding (ID50) TNFR-p55” value (human TNFR-p55) was 3,330 fold, the “ID50 TNFR-p55 / ID50 TNFR-p75” value (human TNFR-p55) was over 33.3 and the “Dilution of E. coli Lysate for 50% Inhibition of 125I-TNFα Binding (ID50) TNFR-p75” value (human TNFR-p75) was under 100 fold.

With Y87G: human TNFα mutein Y87G the “Dilution of E. coli Lysate for 50% Inhibition of 125I-TNFα Binding (ID50) TNFR-p55” value (human TNFR-p55) was under 100 fold, the “ID50 TNFR-p55 / ID50 TNFR-p75” value (human TNFR-p55) was 1 and the “Dilution of E. coli Lysate for 50% Inhibition of 125I-TNFα Binding (ID50) TNFR-p75” value (human TNFR-p75) was under 100 fold.

L75H: human TNFα mutein L75H was tested, and the “Dilution of E. coli Lysate for 50% Inhibition of 125I-TNFα Binding (ID50) TNFR-p55” value (human TNFR-p55) was 1,670 fold, the “ID50 TNFR-p55 / ID50 TNFR-p75” value (human TNFR-p55) was 0.7 and the “Dilution of E. coli Lysate for 50% Inhibition of 125I-TNFα Binding (ID50) TNFR-p75” value (human TNFR-p75) was 2,500 fold.

In the case of N34R: human TNFα mutein N34R, the “Dilution of E. coli Lysate for 50% Inhibition of 125I-TNFα Binding (ID50) TNFR-p55” value (human TNFR-p55) is reported as under 100 fold, the “ID50 TNFR-p55 / ID50 TNFR-p75” value (human TNFR-p55) is reported as over 1 and the “Dilution of E. coli Lysate for 50% Inhibition of 125I-TNFα Binding (ID50) TNFR-p75” value (human TNFR-p75) is reported as under 100 fold.

In the case of Y87Q: human TNFα mutein Y87Q, the “Dilution of E. coli Lysate for 50% Inhibition of 125I-TNFα Binding (ID50) TNFR-p55” value (human TNFR-p55) is reported as under 100 fold, the “ID50 TNFR-p55 / ID50 TNFR-p75” value (human TNFR-p55) is reported as 1 and the “Dilution of E. coli Lysate for 50% Inhibition of 125I-TNFα Binding (ID50) TNFR-p75” value (human TNFR-p75) is reported as under 100 fold.

For A145D: human TNFα mutein A145D, the “Dilution of E. coli Lysate for 50% Inhibition of 125I-TNFα Binding (ID50) TNFR-p55” value (human TNFR-p55) was 5,000 fold, the “ID50 TNFR-p55 / ID50 TNFR-p75” value (human TNFR-p55) was 0.7 and the “Dilution of E. coli Lysate for 50% Inhibition of 125I-TNFα Binding (ID50) TNFR-p75” value (human TNFR-p75) was 6,670 fold.

For Y87F: human TNFα mutein Y87F, the “Dilution of E. coli Lysate for 50% Inhibition of 125I-TNFα Binding (ID50) TNFR-p55” value (human TNFR-p55) was 200 fold, the “ID50 TNFR-p55 / ID50 TNFR-p75” value (human TNFR-p55) was over 2 and the “Dilution of E. coli Lysate for 50% Inhibition of 125I-TNFα Binding (ID50) TNFR-p75” value (human TNFR-p75) was under 100 fold.
